Measurements: patent US20200163913A1 (Shanghai Huali Biomedical Co., Ltd., priority 2017, published 2020)
Where two headings read alike, the source gives them in different places.

Legend:
[1] = tested on: human cervical cancer cell HeLa; assay: CCK-8 cell proliferation inhibition, HeLa; type: cell-based; conditions: Homo sapiens, HeLa, 72 h, read-out: IC50 Hela
Protocol: (§1) Take more than 90% of live cells for experiments. Cell proliferation inhibition test uses EnoGeneCell™ Counting Kit-8 (CCK-8) cell viability detection kit. Cells are digested and counted to make a cell suspension with a concentration of 1×10^5 cells/mL, 100 μL of cell suspension (1×10^4 cells per well) was added to each well of a 96-well plate; Incubate in a 5% CO2 incubator for 24 hours; add 100 μL of the corresponding drug-containing culture medium to each well, and set a negative control group, a vehicle control group, and a positive control group, with 5 replicates in each group; place the 96-well plate at 37° C.

[2] = tested on: human lung cancer cell A549; assay: CCK-8 cell proliferation inhibition, A549; type: cell-based; conditions: read-out: IC50 A549
Protocol: as §1

[3] = tested on: human colon cancer cell HCT-116; assay: CCK-8 cell proliferation inhibition, HCT-116; type: cell-based; conditions: Homo sapiens, HCT-116, 72 h, read-out: IC50 HTC116
Protocol: as §1

[4] = tested on: human liver cancer cell HepG2; assay: CCK-8 cell proliferation inhibition, HepG2; type: cell-based; conditions: Homo sapiens, read-out: IC50 HepG2
Protocol: as §1

[5] = tested on: human gastric cancer cell MKN45; assay: CCK-8 cell proliferation inhibition, MKN45; type: cell-based; conditions: MKN-45, 72 h, read-out: IC50 MKN45
Protocol: as §1

[6] = tested on: human gastric cancer cell MGC-803; assay: CCK-8 cell proliferation inhibition, MGC-803; type: cell-based; conditions: MGC-803, 72 h, read-out: IC50 MGC803
Protocol: as §1

Arylsulfatase = Arylsulfatase activity assay in vitro; type: biochemical; conditions: p-nitrophenyl sulfate substrate, 405 nm; read-out: IC50 sulfatase
Protocol: Weigh an appropriate amount of the test compound and dissolve it in dimethyl sulfoxide. Dilute it with Tris-HCl buffer for 2, 5, 10, 20, 50, 100, 200, 500, 1000, 2000, 5000, and 10,000 times. Add another dilution gradient to the sample. Arylsulfatase and potassium p-nitrophenyl sulfate are directly dissolved in Tris-HCl buffer. 40 μL of the test compound, 50 μL of arylsulfatase and 50 μL of potassium p-nitrobenzene sulfate were added to a 96-well plate for reaction. A blank control without enzymes and a standard control without test compounds are used. The volume is made up with Tris-HCl buffer. 405 nm detection in the microplate reader, each sample is measured for 40 times, and the interval is 30 s. The representative time node within the time period with good linearity of the absorbance value are selected for data analysis. The measured absorbance value are subtracted from the background value of the blank control and the initial value when the reaction time are 0. For comparison, calculate the inhibition rate at different concentrations, and use the built-in forecast function of excel to predict the IC50 value.

Tubulin = Tubulin polymerization activity test; type: biochemical; conditions: tubulin 4.8 mg/ml, 37° C., 340 nm; read-out: IC50 (Table 3, tubulin polymerization test)
Protocol: Tubulin (4.8 mg/ml) protein was mixed with the test compound in a PEM buffer (100 mM PIPES, 1 mM MgCl2 and 1 mM EGTA) containing 1 mM GTP and 5% glycerol. A SPECTRA MAX 190 (Molecular Device) spectrophotometer was used to monitor the microtubule polymerization at 37° C. by light scattering at 340 nm, and the microtubule polymerization was calculated from the absorbance value. Each sample was tested three times at ten different concentrations.

| SMILES | IC50 ([1]; CCK-8, 72 h) [µM] | IC50 ([2]; A549, CCK-8, 72 h) [µM] | IC50 ([3]; CCK-8, 72 h) [µM] | IC50 ([4]; HepG2, 72 h, CCK-8, 72 h) [µM] | IC50 ([5]; CCK-8, 72 h) [µM] | IC50 ([6]; CCK-8, 72 h) [µM] | IC50 ([4]; HepG2, running text) [µM] | IC50 (Arylsulfatase) [µM] | IC50 (Tubulin) [µM] | IC50 [1] [µM] | IC50 ([2]; A549, 72 h) [µM] | IC50 [3] [µM] | IC50 ([4]; HepG2, 72 h) [µM] | IC50 [5] [µM] | IC50 [6] [µM] | melting point [°C] |
| --- | --- | --- | --- | --- | --- | --- | --- | --- | --- | --- | --- | --- | --- | --- | --- | --- |
| COc1ccc(/C=C\c2cc(OC)c(OC)c(OC)c2)cc1O [CA-4, (Z)-3,4,5-trimethoxy-3′-hydroxy-4′-methoxystilbene, reference compound] | 11.3 | 5.99 | 9 | 16 | 3.44 | 1.76 |  |  |  |  |  |  |  |  |  |  |
| COc1ccc(/C=C/c2cc(OC)c(OC)c(OC)c2)cc1OS(N)(=O)=O [Compound A1-2, (E)-3,4,5-trimethoxy-4′-methoxy-3′-sulfamate stilbene] | 4.5 | 11.4 | 1.57 | 0.87 | 10.5 | 2.98 | < 1 | 12.9 | 55.7 |  |  |  |  |  |  |  |
| COc1ccc(CCc2cc(OC)c(OC)c(OC)c2)cc1OS(N)(=O)=O [Compound A1-3, 3,4,5-trimethoxy-4′-methoxy-3′-sulfamate diphenylethane] | 9.04 | 15.8 | 3.08 | 1.14 | 11.9 | 3.61 |  |  | 72.6 |  |  |  |  |  |  |  |
| CNS(=O)(=O)Oc1cc(/C=C\c2cc(OC)c(OC)c(OC)c2)ccc1OC [Compound A1-4, (Z)-3,4,5-trimethoxy-4′-methoxy-3′-N-methylsulfamate stilbene] |  |  |  |  |  |  |  |  |  | 0.317 | 0.269 | 16.8 | 0.263 | 0.369 | 5.05 | 118.4 to 121.6 |
| COc1ccc(/C=C\c2cc(OC)c(OC)c(OC)c2)cc1OS(=O)(=O)N(C)C [Compound A1-5, (Z)-3,4,5-trimethoxy-4′-methoxy-3′-N,N-dimethylsulfamate stilbene] |  |  |  |  |  |  |  |  | 3.1 | 14.3 | 0.987 | 0.366 | 9.96 | 7.14 | 8.95 | 102.7 to 105.6 |
| CCOc1ccc(/C=C/c2cc(OC)c(OC)c(OC)c2)cc1OS(N)(=O)=O [Compound A2-2, (E)-3,4,5-trimethoxy-4′-ethoxy-3′-sulfamate stilbene] | 5.64 | 4.86 | 9.12 | 2.63 | 8.05 | 7.63 |  |  |  |  |  |  |  |  |  |  |
| CCOc1ccc(CCc2cc(OC)c(OC)c(OC)c2)cc1OS(N)(=O)=O [Compound A2-3, 3,4,5-trimethoxy-4′-ethoxy-3′-sulfamate diphenylethane] | 2.93 | 1.6 | 10.2 | 3.65 | 7.67 | 3.59 |  |  |  |  |  |  |  |  |  | 122.3 to 126.7 |
| COc1cc(/C=C\c2ccc(OC(F)F)c(OS(N)(=O)=O)c2)cc(OC)c1OC [Compound A3-1, (Z)-3,4,5-trimethoxy-4′-difluoromethoxy-3′-sulfamate stilbene] |  |  |  |  |  |  |  | 4.64 | 1.8 | 7.82 | 5.21 | 9.11 | 4.8 | 9 | 12.5 | 161.6 to 162.9 |
| COc1cc(/C=C/c2ccc(OC(F)F)c(OS(N)(=O)=O)c2)cc(OC)c1OC [Compound A3-2, (E)-3,4,5-trimethoxy-4′-difluoromethoxy-3′-sulfamate stilbene] |  |  |  |  |  |  |  |  | 12.5 | 8.42 | 28.2 | 12.8 | 5.54 | 9.24 | 13.8 | 145.5 to 148.6 |
